In patent US20250034147A1, “MDM2 DEGRADERS AND USES THEREOF” (Kymera Therapeutics, Inc., priority 2021, published 2025):

How the values were obtained:
HiBiT-tagged MDM2 = molecular target: T1, HiBiT-tagged MDM2 (Homo sapiens, UniProt Q00987); assay: MDM2 HiBit HEK293T degradation; type: cell-based; settings: HEK293T cells stably expressing C-terminally HiBiT-tagged MDM2; 4 h; read-out: MDM2 HiBit HEK293T degradation 4 h: Average external-Abs DC50
T1 construct: expressed in transfected cells
In short: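 Degradation was measured in HEK293T cells stably expressing C-terminally HiBiT-tagged MDM2, a pool selected with 1 microgram/ml puromycin. A MDM2 tool degrader and HaloPROTAC3 served as positive controls. Potency is reported as DC50 in letter bins.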

RS411 cells = assay: Cell Viability CTG Assay; type: cell-based; settings: Homo sapiens, RS4-11, CellTiter Glo (CTG) cell viability, read-out: Average external-IC50
In short: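 RS411 cells (1000/well) exposed 1 day at 37 °C to compound, 11-point 3-fold dilution from 10 μM top, 0.2% DMSO final. Viability read by CellTiter-Glo luminescence; IC50 reported as letter bins.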

T1 sequence (Q00987 whole entry): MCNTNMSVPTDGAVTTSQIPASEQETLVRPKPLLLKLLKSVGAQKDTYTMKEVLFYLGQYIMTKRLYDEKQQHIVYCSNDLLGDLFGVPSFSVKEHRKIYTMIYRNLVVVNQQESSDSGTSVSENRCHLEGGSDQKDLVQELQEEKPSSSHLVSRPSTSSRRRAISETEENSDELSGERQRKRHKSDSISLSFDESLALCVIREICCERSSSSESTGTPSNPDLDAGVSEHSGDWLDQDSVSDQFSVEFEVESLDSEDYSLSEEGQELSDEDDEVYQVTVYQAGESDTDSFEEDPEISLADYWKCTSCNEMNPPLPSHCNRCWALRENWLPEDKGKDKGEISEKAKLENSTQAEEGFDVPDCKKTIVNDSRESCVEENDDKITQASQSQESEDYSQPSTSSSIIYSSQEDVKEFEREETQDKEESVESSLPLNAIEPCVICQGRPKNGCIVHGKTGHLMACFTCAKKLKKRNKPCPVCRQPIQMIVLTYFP

Cn1c(=O)n(C2CCC(=O)NC2=O)c2ccc(C(=O)N3CC(OC4CN(C[C@H]5CC[C@H](NC(=O)[C@@H]6NC7(CCCCC7)[C@@]7(C(=O)Nc8cc(Cl)ccc87)[C@H]6c6cccc(Cl)c6F)CC5)C4)C3)cc21 (some centres unmarked) [I-58]
DC50 (HiBiT-tagged MDM2): < 10 nM | IC50 (RS411 cells): 5 to 50 nM

Cn1c(=O)n(C2CCC(=O)NC2=O)c2ccc(CN3CC(OC4CN(C[C@H]5CC[C@H](NC(=O)[C@@H]6NC7(CCCCC7)[C@@]7(C(=O)Nc8cc(Cl)ccc87)[C@H]6c6cccc(Cl)c6F)CC5)C4)C3)cc21 (some centres unmarked) [I-59]
DC50 (HiBiT-tagged MDM2): < 10 nM | IC50 (RS411 cells): 5 to 50 nM

COc1cc2c(cc1OC(C)C)[C@H](c1ccc(Cl)cc1)N(c1ccc(N(C)C[C@H]3CC[C@H](N4CCN(Cc5ccc6c(c5)n(C)c(=O)n6C5CCC(=O)NC5=O)CC4)CC3)cc1)C(=O)C2 (some centres unmarked) [I-60]
DC50 (HiBiT-tagged MDM2): < 10 nM | IC50 (RS411 cells): < 5 nM

COc1cc2c(cc1OC(C)C)C(c1ccc(Cl)cc1)N(C1CCC(N(C)CC3CCN(CCCCCCc4ccc5c(c4)n(C)c(=O)n5C4CCC(=O)NC4=O)CC3)CC1)C(=O)C2 (centres unmarked) [I-61]
DC50 (HiBiT-tagged MDM2): > 1000 nM | IC50 (RS411 cells): > 500 nM

COc1cc2c(cc1OC(C)C)[C@H](c1ccc(Cl)cc1)N(c1ccc(N(C)CC3CCN(c4ccc5c(c4)n(C)c(=O)n5C4CCC(=O)NC4=O)CC3)cc1)C(=O)C2 (some centres unmarked) [I-62]
DC50 (HiBiT-tagged MDM2): < 10 nM | IC50 (RS411 cells): 5 to 50 nM

COc1cc2c(cc1OC(C)C)[C@H](c1ccc(Cl)cc1)N(c1ccc(N(C)C[C@H]3CC[C@H](N4CCN(CCc5cccc6c5n(C)c(=O)n6C5CCC(=O)NC5=O)CC4)CC3)cc1)C(=O)C2 (some centres unmarked) [I-63]
DC50 (HiBiT-tagged MDM2): < 10 nM | IC50 (RS411 cells): 5 to 50 nM

CC(C)[C@@H](CS(=O)(=O)C(C)C)N1C(=O)[C@@](C)(CC(=O)N[C@H]2CC[C@H](CN3CCN(CCCc4ccc5c(c4)n(C)c(=O)n5C4CCC(=O)NC4=O)CC3)CC2)C[C@H](c2cccc(Cl)c2)[C@H]1c1ccc(Cl)cc1 (some centres unmarked) [I-64]
DC50 (HiBiT-tagged MDM2): 10 to 100 nM | IC50 (RS411 cells): 5 to 50 nM

COc1cc2c(cc1OC(C)C)[C@H](c1ccc(Cl)cc1)N(c1ccc(N(C)C[C@H]3CC[C@H](N4C[C@@H]5C[C@H]4CN5CCc4ccc5c(c4)n(C)c(=O)n5C4CCC(=O)NC4=O)CC3)cc1)C(=O)C2 (some centres unmarked) [I-65]
DC50 (HiBiT-tagged MDM2): 10 to 100 nM | IC50 (RS411 cells): 5 to 50 nM

CC1(C)CCC2(CC1)N[C@@H](C(=O)N[C@H]1CC[C@H](CN3CCN(CCCc4cccn5c(N6CCC(=O)NC6=O)cnc45)CC3)CC1)[C@H](c1ccnc(Cl)c1F)[C@]21C(=O)Nc2cc(Cl)ccc21 [I-67]
DC50 (HiBiT-tagged MDM2): < 10 nM | IC50 (RS411 cells): 5 to 50 nM

Cn1c(=O)n(C2CCC(=O)NC2=O)c2ccc(CN3CCN(C[C@H]4CC[C@H](NC(=O)[C@@H]5NC6(CCCCC6)[C@@]6(C(=O)Nc7cc(Cl)ccc76)[C@H]5c5cccc(Cl)c5F)CC4)CC3)cc21 (some centres unmarked) [I-69]
DC50 (HiBiT-tagged MDM2): < 10 nM | IC50 (RS411 cells): 5 to 50 nM

Cn1c(=O)n(C2CCC(=O)NC2=O)c2ccc(N3CCN(CC4CCN(C[C@H]5CC[C@H](NC(=O)[C@@H]6NC7(CCCCC7)[C@@]7(C(=O)Nc8cc(Cl)ccc87)[C@H]6c6cccc(Cl)c6F)CC5)CC4)CC3)cc21 (some centres unmarked) [I-70]
DC50 (HiBiT-tagged MDM2): < 10 nM | IC50 (RS411 cells): < 5 nM

COc1cc2c(cc1OC(C)C)[C@H](c1ccc(Cl)cc1)N(c1ccc(N(C)C[C@H]3CC[C@H](N4CCN(c5ccc6c(c5)n(C)c(=O)n6C5CCC(=O)NC5=O)CC4)CC3)cc1)C(=O)C2 (stereo partly drawn) [I-71, 3-[5-[4-[4-[[4-[(1S)-1-(4-chlorophenyl)-7-isopropoxy-6-methoxy-3-oxo-1,4-dihydroisoquinolin-2-yl]-N-methyl-anilino]methyl]cyclohexyl]piperazin-1-yl]-3-methyl-2-oxo-benzimidazol-1-yl]piperidine-2,6-dione]
DC50 (HiBiT-tagged MDM2): < 10 nM | IC50 (RS411 cells): < 5 nM

Cn1c(=O)n(C2CCC(=O)NC2=O)c2ccc(CCCN3CCN(C[C@H]4CC[C@H](NC(=O)[C@@H]5NC6(CCC(C)(C)CC6)[C@@]6(C(=O)Nc7cc(Cl)ccc76)[C@H]5c5cccc(Cl)c5F)CC4)CC3)cc21 (some centres unmarked) [I-72]
DC50 (HiBiT-tagged MDM2): < 10 nM | IC50 (RS411 cells): < 5 nM

COc1cc2c(cc1OC(C)C)[C@H](c1ccc(Cl)cc1)N(c1ccc(N(C)C[C@H]3CC[C@H](N4CCC(c5ccc6c(c5)n(C)c(=O)n6C5CCC(=O)NC5=O)CC4)CC3)cc1)C(=O)C2 (some centres unmarked) [I-73]
DC50 (HiBiT-tagged MDM2): < 10 nM | IC50 (RS411 cells): < 5 nM

COc1cc2c(cc1OC(C)C)[C@H](c1ccc(Cl)cc1)N(c1ccc(N(C)C[C@H]3CC[C@H](c4ccc5c(c4)n(C)c(=O)n5C4CCC(=O)NC4=O)CC3)cc1)C(=O)C2 (some centres unmarked) [I-74]
DC50 (HiBiT-tagged MDM2): < 10 nM | IC50 (RS411 cells): 5 to 50 nM

CN1[C@@H](C(=O)N[C@H]2CC[C@H](CN3CC4(CCN(CCc5ccc6c(c5)n(C)c(=O)n6C5CCC(=O)NC5=O)CC4)C3)CC2)[C@H](c2cccc(Cl)c2F)[C@]2(C(=O)Nc3cc(Cl)ccc32)C12CCCCC2 (some centres unmarked) [I-75]
DC50 (HiBiT-tagged MDM2): < 10 nM | IC50 (RS411 cells): 5 to 50 nM

Cn1c(=O)n(C2CCC(=O)NC2=O)c2ccc(C3CCN(C[C@@H]4CC[C@@H](NC(=O)[C@@H]5NC6(CCC(C)(C)CC6)[C@@]6(C(=O)Nc7cc(Cl)ccc76)[C@H]5c5ccnc(Cl)c5F)CO4)CC3)cc21 (some centres unmarked) [I-76]
DC50 (HiBiT-tagged MDM2): < 10 nM | IC50 (RS411 cells): < 5 nM

Cn1c(=O)n(C2CCC(=O)NC2=O)c2ccc(C#CC3CCN(C[C@H]4CC[C@H](NC(=O)[C@@H]5NC6(CCC(C)(C)CC6)[C@@]6(C(=O)Nc7cc(Cl)ccc76)[C@H]5c5ccnc(Cl)c5F)CC4)C(=O)C3)cc21 (some centres unmarked) [I-77]
DC50 (HiBiT-tagged MDM2): < 10 nM | IC50 (RS411 cells): 5 to 50 nM

Cn1c(=O)n(C2CCC(=O)NC2=O)c2ccc(CCN3CCN(CCCN4CCC(NC(=O)[C@@H]5NC6(CCCCC6)[C@@]6(C(=O)Nc7cc(Cl)ccc76)[C@H]5c5cccc(Cl)c5F)CC4)CC3)cc21 (some centres unmarked) [I-78]
DC50 (HiBiT-tagged MDM2): < 10 nM | IC50 (RS411 cells): < 5 nM

CCCc1ccc2c(c1)NC(=O)[C@]21[C@@H](c2cccc(Cl)c2F)[C@H](C(=O)N[C@H]2CC[C@H](CN3CCC(c4ccc5c(c4)n(C)c(=O)n5C4CCC(=O)NC4=O)CC3)CC2)NC12CCCCC2 (some centres unmarked) [I-79]
DC50 (HiBiT-tagged MDM2): < 10 nM | IC50 (RS411 cells): > 500 nM

Cn1c(=O)n(C2CCC(=O)NC2=O)c2ccc(C3CCN(S(=O)(=O)NC(=O)[C@H]4CC[C@H](NC(=O)[C@@H]5NC6(CCCCC6)[C@@]6(C(=O)Nc7cc(Cl)ccc76)[C@H]5c5cccc(Cl)c5F)CC4)CC3)cc21 (some centres unmarked) [I-80]
DC50 (HiBiT-tagged MDM2): < 10 nM | IC50 (RS411 cells): < 5 nM

Cc1ccc2c(c1)NC(=O)[C@]21[C@@H](c2cccc(Cl)c2F)[C@H](C(=O)N[C@H]2CC[C@H](C(=O)N3CCC(c4ccc5c(c4)n(C)c(=O)n5C4CCC(=O)NC4=O)CC3)CC2)NC12CCCCC2 (some centres unmarked) [I-81]
DC50 (HiBiT-tagged MDM2): < 10 nM | IC50 (RS411 cells): < 5 nM

O=C(O)CCn1c(=O)n(C2CCC(=O)NC2=O)c2ccc(C3CCN(C(=O)[C@H]4CC[C@H](NC(=O)[C@@H]5NC6(CCCCC6)[C@@]6(C(=O)Nc7cc(Cl)ccc76)[C@H]5c5cccc(Cl)c5F)CC4)CC3)cc21 (some centres unmarked) [I-82]
DC50 (HiBiT-tagged MDM2): 10 to 100 nM | IC50 (RS411 cells): 5 to 50 nM

Cn1c(=O)n(C2CCC(=O)NC2=O)c2ccc(C3CCN(C[C@H]4CC[C@H](NC(=O)[C@@H]5NC6(CCCCC6)[C@@]6(C(=O)Nc7cc(Cl)ccc76)[C@H]5c5cccc(Cl)c5F)CC4)C[C@H]3F)cc21 (some centres unmarked) [I-83]
DC50 (HiBiT-tagged MDM2): 10 to 100 nM | IC50 (RS411 cells): > 500 nM

Cn1c(=O)n(C2CCC(=O)NC2=O)c2ccc([C@@H]3CCN(C[C@H]4CC[C@H](NC(=O)[C@@H]5NC6(CCCCC6)[C@@]6(C(=O)Nc7cc(Cl)ccc76)[C@H]5c5cccc(Cl)c5F)CC4)C[C@@H]3F)cc21 (some centres unmarked) [I-85]
DC50 (HiBiT-tagged MDM2): < 10 nM | IC50 (RS411 cells): 5 to 50 nM

Cn1c(=O)n(C2CCC(=O)NC2=O)c2ccc(N3CC4(CCN(C(=O)[C@H]5CC[C@H](NC(=O)[C@@H]6NC7(CCCCC7)[C@@]7(C(=O)Nc8cc(Cl)ccc87)[C@H]6c6cccc(Cl)c6F)CC5)CC4)C3)cc21 (some centres unmarked) [I-86]
DC50 (HiBiT-tagged MDM2): < 10 nM | IC50 (RS411 cells): < 5 nM

O=C(N[C@H]1CC[C@H](CN2CCC(CCCCCC3CCN(C[C@H]4CC[C@H](NC(=O)[C@@H]5NC6(CCCCC6)[C@@]6(C(=O)Nc7cc(Cl)ccc76)[C@H]5c5cccc(Cl)c5F)CC4)CC3)CC2)CC1)[C@@H]1NC2(CCCCC2)[C@@]2(C(=O)Nc3cc(Cl)ccc32)[C@H]1c1cccc(Cl)c1F [I-87]
DC50 (HiBiT-tagged MDM2): > 1000 nM | IC50 (RS411 cells): > 500 nM

Cn1c(=O)n(C2CCC(=O)NC2=O)c2ccc(N3CC4(CN(C[C@H]5CC[C@H](NC(=O)[C@@H]6NC7(CCCCC7)[C@@]7(C(=O)Nc8cc(Cl)ccc87)[C@H]6c6cccc(Cl)c6F)CC5)C4)C3)cc21 (some centres unmarked) [I-88]
DC50 (HiBiT-tagged MDM2): < 10 nM | IC50 (RS411 cells): < 5 nM

CN(CCc1ccc2c(c1)n(C)c(=O)n2C1CCC(=O)NC1=O)CCN(C)C(=O)[C@H]1CC[C@H](NC(=O)[C@@H]2NC3(CCCCC3)[C@@]3(C(=O)Nc4cc(Cl)ccc43)[C@H]2c2cccc(Cl)c2F)CC1 (some centres unmarked) [I-89]
DC50 (HiBiT-tagged MDM2): < 10 nM | IC50 (RS411 cells): 5 to 50 nM

CN1C(C(=O)N[C@H]2CC[C@H](C(=O)N3CCC4(CC3)CN(c3ccc5c(c3)n(C)c(=O)n5C3CCC(=O)NC3=O)C4)CC2)[C@H](c2cccc(Cl)c2F)[C@]2(C(=O)Nc3cc(Cl)ccc32)C12CCCCC2 (some centres unmarked) [I-91]
DC50 (HiBiT-tagged MDM2): < 10 nM | IC50 (RS411 cells): 5 to 50 nM

COc1cc2c(cc1OC(C)C)[C@H](c1ccc(Cl)cc1)N(c1ccc(N(C)C[C@H]3CC[C@H](N(CC(=O)O)C(=O)CCCCc4ccc5c(c4)n(C)c(=O)n5C4CCC(=O)NC4=O)CC3)cc1)C(=O)C2 (some centres unmarked) [I-93]
DC50 (HiBiT-tagged MDM2): 100 to 1000 nM | IC50 (RS411 cells): > 500 nM
